Experimental data from BindingDB's records for doi:10.1016/s0960-894x(03)00195-1 (Abbott Laboratories, 2003).

Experiment: Inhibition of transfer of […] to biotin K-ras peptide (KKSKTKCVLL) catalyzed by bovine GGTase-I
For `Cn1cncc1C(OCc1ccc(C#N)nc1-c1cc(F)cc(F)c1)c1ccc(C#N)cc1` (centres undefined), the IC50 was 4.8 µM. For `Cn1cncc1C(OCc1ccc(C#N)cc1-c1cccc(Cl)c1)c1ccc(C#N)nc1` (centres undefined) [5-[(3'-Chloro-5-cyano-biphenyl-2-ylmethoxy)-(3-methyl-3H-imidazol-4-yl)-methyl]-pyridine-2-carbonitrile], the IC50 was 8.62 µM. Molecule `Cn1cncc1C(OCc1nc(N2CCOCC2)c(C#N)cc1-c1cccc(Cl)c1)c1ccc(C#N)cc1` (centres undefined) [5-(3-Chloro-phenyl)-6-[(4-cyano-phenyl)-(3-methyl-3H-imidazol-4-yl)-methoxymethyl]-2-morpholin-4-yl-nicotinonitrile] has an IC50 of 1.8 µM. `Cn1cncc1C(OCc1nc(N2CCN(C(=O)OC(C)(C)C)CC2)c(C#N)cc1-c1cccc(Cl)c1)c1ccc(C#N)cc1` (centres undefined) gave an IC50 of 0.65 µM. `Cn1cncc1C(OCc1nc(N2CCC(O)CC2)c(C#N)cc1-c1cccc(Cl)c1)c1ccc(C#N)cc1` (centres undefined) [5'-(3-Chloro-phenyl)-6'-[(4-cyano-phenyl)-(3-methyl-3H-imidazol-4-yl)-methoxymethyl]-4-hydroxy-3,4,5,6-tetrahydro-2H-[1,2']bipyridinyl-3'-carbonitrile] showed an IC50 of 0.83 µM. Work on `Cn1cncc1C(OCc1ccc(C#N)nc1-c1cccc(Cl)c1)c1ccc(C#N)cc1` (centres undefined) [6-(3-Chloro-phenyl)-5-[(4-cyano-phenyl)-(3-methyl-3H-imidazol-4-yl)-methoxymethyl]-pyridine-2-carbonitrile] yielded an IC50 of 1.7 µM. `CN1CCN(c2nc(COC(c3ccc(C#N)cc3)c3cncn3C)c(-c3cccc(Cl)c3)cc2C#N)CC1` (centres undefined) [5-(3-Chloro-phenyl)-6-[(4-cyano-phenyl)-(3-methyl-3H-imidazol-4-yl)-methoxymethyl]-2-(4-methyl-piperazin-1-yl)-nicotinonitrile] showed an IC50 of 2.4 µM. For `Cn1cncc1C(OCc1ccc(C#N)cc1-c1ccc(F)c(Cl)c1)c1ccc(C#N)nc1` (centres undefined) [5-[(3'-Chloro-5-cyano-4'-fluoro-biphenyl-2-ylmethoxy)-(3-methyl-3H-imidazol-4-yl)-methyl]-pyridine-2-carbonitrile], the IC50 was 8.6 µM. Molecule `Cn1cncc1C(OCc1ccc(C#N)nc1-c1cc(Cl)cc(Cl)c1)c1ccc(C#N)cc1` (centres undefined) [5-[(4-Cyano-phenyl)-(3-methyl-3H-imidazol-4-yl)-methoxymethyl]-6-(3,5-dichloro-phenyl)-pyridine-2-carbonitrile] has an IC50 of 1.4 µM. `Cn1cncc1C(OCc1ccc(C#N)cc1)c1ccc(C#N)c(-c2cccc3cccnc23)c1` (centres undefined) [4-[(4-Cyano-benzyloxy)-(3-methyl-3H-imidazol-4-yl)-methyl]-2-quinolin-8-yl-benzonitrile] gave an IC50 of 0.103 µM. `Cn1cncc1C(OCc1ccc(C#N)c(-c2ccc3ccccc3c2)n1)c1ccc(C#N)cc1` (centres undefined) showed an IC50 of 2.6 µM. For `Cn1cncc1C(OCc1nc(N2CCC(C(N)=O)CC2)c(C#N)cc1-c1cccc(Cl)c1)c1ccc(C#N)cc1` (centres undefined) [5'-(3-Chloro-phenyl)-3'-cyano-6'-[(4-cyano-phenyl)-(3-methyl-3H-imidazol-4-yl)-methoxymethyl]-3,4,5,6-tetrahydro-2H-[1,2']bipyridinyl-4-carboxylic acid amide], the IC50 was 2.1 µM. `Cn1cncc1C(OCc1ccc(C#N)cc1-c1cccc(OC(F)(F)F)c1)c1ccc(C#N)nc1` (centres undefined) [5-[(5-Cyano-3'-trifluoromethoxy-biphenyl-2-ylmethoxy)-(3-methyl-3H-imidazol-4-yl)-methyl]-pyridine-2-carbonitrile] showed an IC50 of 0.99 µM. For `Cn1cncc1C(OCc1ccc(C#N)c(-c2cccc(Cl)c2)n1)c1ccc(C#N)cc1` (centres undefined) [2-(3-Chloro-phenyl)-6-[(4-cyano-phenyl)-(3-methyl-3H-imidazol-4-yl)-methoxymethyl]-nicotinonitrile], the IC50 was 1.1 µM. With `Cn1cncc1C(OCc1ccc(C#N)nc1-c1ccc(OC(F)(F)F)cc1)c1ccc(C#N)cc1` (centres undefined) [5-[(4-Cyano-phenyl)-(3-methyl-3H-imidazol-4-yl)-methoxymethyl]-6-(4-trifluoromethoxy-phenyl)-pyridine-2-carbonitrile] the IC50 was 1.2 µM. `Cn1cncc1C(OCc1ccc(C#N)nc1-c1ccc2c(c1)OC(F)(F)O2)c1ccc(C#N)cc1` (centres undefined) [5-[(4-Cyano-phenyl)-(3-methyl-3H-imidazol-4-yl)-methoxymethyl]-6-(2,2-difluoro-benzo[1,3]dioxol-5-yl)-pyridine-2-carbonitrile] showed an IC50 of 1.1 µM. Work on `Cn1cncc1C(OCc1ccc(C#N)nc1-c1cccc(OC(F)(F)F)c1)c1ccc(C#N)cc1` (centres undefined) yielded an IC50 of 0.51 µM. For `Cn1cncc1[C@H](OCc1nc(Cl)c(C#N)cc1-c1cccc(Cl)c1)c1ccc(C#N)cc1`, the IC50 was 2.8 µM. With `Cn1cncc1C(OCc1ccc(C#N)cc1-c1cc(Cl)cc(Cl)c1)c1ccc(C#N)nc1` (centres undefined) [5-[(3',5'-Dichloro-5-cyano-biphenyl-2-ylmethoxy)-(3-methyl-3H-imidazol-4-yl)-methyl]-pyridine-2-carbonitrile] the IC50 was 0.96 µM. Work on `Cn1cncc1C(OCc1ccc(C#N)cn1)c1ccc(C#N)c(-c2cccc3ccccc23)c1` (centres undefined) [A-315493] yielded an IC50 of 0.024 µM. With `COc1cccc(-c2cc(C#N)ccc2COC(c2ccc(C#N)cc2)c2cncn2C)c1` (centres undefined) [4-{[(4-cyanophenyl)(1-methyl-1H-imidazol-5-yl)methoxy]methyl}-3-(3-methoxyphenyl)benzonitrile] the IC50 was 3.9 µM. `CC(=O)N1CCN(c2nc(COC(c3ccc(C#N)cc3)c3cncn3C)c(-c3cccc(Cl)c3)cc2C#N)CC1` (centres undefined) gave an IC50 of 2.1 µM. Work on `Cn1cncc1C(OCc1ncc(C#N)cc1-c1cccc(Cl)c1)c1ccc(C#N)cc1` (centres undefined) yielded an IC50 of 4.2 µM. Molecule `Cn1cncc1C(OCc1ccc(C#N)nc1-c1ccc2ccccc2c1)c1ccc(C#N)cc1` (centres undefined) [5-[(4-Cyano-phenyl)-(3-methyl-3H-imidazol-4-yl)-methoxymethyl]-6-naphthalen-2-yl-pyridine-2-carbonitrile] has an IC50 of 5.5 µM.
